Laboratory results taken from article PMC5486949 (SLAS discovery, 2017).

Legend:
Assay type in all cases: cell-based, human
PGC-1α/ERRα = test: PGC/ERR luciferase reporter gene assay, antagonist mode; settings: Homo sapiens
ERR cell line (HEK293T) = test: Cell viability assay multiplexed with ERR antagonist mode assay; settings: Homo sapiens, HEK-293T, read-out: ERRα (Viability) IC50
[1] = tested on: PGC/ERR cell line (HEK293T); test: Cell viability assay multiplexed with PGC/ERR antagonist mode assay; settings: Homo sapiens, HEK-293T, read-out: PGC-1α/ERRα (Viability) IC50

Question: C=C(C)[C@H]1Cc2c(ccc3c2O[C@@H]2COc4cc(OC)c(OC)cc4[C@@H]2C3=O)O1 [Rotenone] was tested. Which AC50 (PGC-1α/ERRα; read-out: AC50 PGC/ERR ↓) did it give?
Answer: Its AC50 is 74.1 nM.

Question: And the IC50 (PGC-1α/ERRα; read-out: PGC-1α/ERRα (Antagonist) IC50)?
Answer: Its IC50 is 40 nM.

Question: And the IC50 (ERR cell line (HEK293T))?
Answer: The IC50 was 1330 nM.

Question: And the IC50 [1]?
Answer: Its IC50 is 6680 nM.
